Patent US20240294543A1, “CYCLOHEPTA-THIENO-DIAZEPINE DERIVATIVES AS GABA A GAMMA1 PAM” (Hoffmann-La Roche Inc., priority 2021, published 2024)
Where two headings read alike, the source gives them in different places.

Legend:
[1] = biological target: human GABAA α2β2γ1 receptor (Homo sapiens (Human), UniProt P47869+Q8N1C3); experiment: Radioligand binding assay, competition for [3H]RO7239181, γ1-containing GABAA subtypes
h-GABA-A α2β2γ1 = h-GABA-A α2β2γ1 (Homo sapiens (Human), UniProt P47869+Q8N1C3); experiment: Two-electrode voltage clamp electrophysiology in Xenopus oocytes expressing GABAA receptors; assay type: cell-based; conditions: for Efficacy (GABA) %: % modulation of GABA EC20 = 100*(Fold increase−1), compound at about 30-fold its Ki α2β2γ1; for Fold increase h-GABA-A α2β2γ1 oocyte @ 30-fold Ki: Xenopus oocytes, GABA EC20, compound at about 30-fold its Ki α2β2γ1
Description: Xenopus Oocytes Preparation Xenopus laevis oocytes at maturation stages V-VI were used for the expression of cloned mRNA encoding GABAA receptor subunits. Oocytes ready for RNA micro-injection were bought from Ecocyte, Castrop-Rauxel, Germany and stored in modified Barth's medium (composition in mM: NaCl 88, KCl 1, NaHCO3 2.4, HEPES 10, MgSO4 0.82, CaNO3 0.33, CaCl2 0.33, pH=7.5) at 20° C. until the experiment.
Oocytes were plated in 96-well plates for microinjection using the Roboinject automated instrument (MultiChannelSystems, Reutlingen, Germany). Approximately 50 nL of an aqueous solution containing the RNA transcripts for the subunits of the desired GABAA receptor subtype was injected into each oocyte. […] Oocytes were kept in modified Barth's medium (composition in mM: NaCl 88, KCl 1, NaHCO3 […], HEPES 10, MgSO4 0.82, CaNO3 0.33, CaCl2 0.33, pH=7.5) at 20° C. until the experiment.
Electrophysiological experiments were performed using the Roboocyte instrument (MultiChannelSystems, Reutlingen, Germany) on days 3 to 5 after the micro-injection of mRNA. During the experiment the oocytes were constantly superfused by a solution containing (in mM) NaCl 90, KCl 1, HEPES 5, MgCl2 1, CaCl2 1 (pH 7.4). Oocytes were impaled by two glass microelectrodes (resistance: 0.5-0.8 MQ) which were filled with a solution containing KCl 1M+K-acetate 1.5 M and voltage-clamped to −80 mV. The recordings were performed at room temperature using the Roboocyte two-electrode voltage clamp system (Multichannelsystem). After an initial equilibration period of 1.5 min GABA was added for 1.5 min at a concentration evoking approximately 20% of a maximal current response (EC20). After another rest interval of 2.5 min GABA was again added evoking a response of similar amplitude and shape. […] Current traces were recorded at a digitization rate of 10 Hz during and shortly before and after the GABA application.
Each compound and concentration was tested on at least 3 oocytes. Different oocytes were used for different compound concentrations.
For the analysis, the digitized current traces of the first and second GABA response were superimposed and, if necessary, rescaled to equal maximal amplitudes. The ratio between the two responses during the time interval of test compound application was calculated point by point. The extremum of the resulting “ratio trace” was taken as the efficacy (“Fold increase”) of the compound expressed as “% modulation of GABA EC20” (100*(Fold increase−1)).

[2] = biological target: human GABAA α1β3γ2 receptor (Homo sapiens (Human), UniProt P14867+P18507); experiment: Radioligand binding assay, competition for [3H]Flumazenil, γ2-containing GABAA subtypes; conditions: for γ2/γ1 Selectivity Ratio: Ki α1β3γ2 (nM)/Ki α2β2γ1 (nM); for LogSel: Log[Ki α1β3γ2 (nM)/Ki α2β2γ1 (nM)]
Summary of the method: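 Competition against [3H]Flumazenil binding in HEK293F cells transiently expressing human α1β3γ2 receptors, pellets resuspended in mannitol buffer pH 7,2-7,4. Incubated to equilibrium 1 hour at 4° C, filtered and washed with ice-cold 50 mM Tris pH 7.5, bound radioactivity by liquid scintillation counting. Ki values are means of two determinations.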

[3] = Ki h-GABAA α2β2γ1, membranes of HEK293F cells, [3H]RO7239181 20-30 nM, Table 1
[4] = Ki h-GABAA α2β2γ1, membranes of HEK293F cells, [3H]RO7239181 20-30 nM, Table 2
[5] = HEK293F cells, [3H]Flumazenil 1 nM, Table 1, read-out: Ki h-GABAA α1β3γ2

Row | Compound | Ki [1, 3] [µM] | Ki [1, 4] [µM] | Efficacy (GABA) % (h-GABA-A α2β2γ1) [%] | Fold increase h-GABA-A α2β2γ1 oocyte @ 30-fold Ki (h-GABA-A α2β2γ1) | Ki [2] [µM] | γ2/γ1 Selectivity Ratio ([2]; Table 1) | LogSel ([2]; Table 1) | Ki ([1]; Ki h-GABAA α2β2γ1, Table 3, reference compounds and examples) [µM] | γ2/γ1 Selectivity Ratio ([2]; Table 3) | LogSel ([2]; Table 3) | Ki ([2]; read-out: Ki h-GABAA α1β3γ2, Table 3, reference compounds and examples) [µM] | Ki [2, 5] [µM]
1 | C[C@@H]1N=C(c2c(F)cccc2F)c2c(sc3c2CCCCC3)-n2c(-c3cccnn3)nnc21 [Example 4, (7S)-9-(2,6-difluorophenyl)-7-methyl-3-pyridazin-3-yl-18-thia-2,4,5,8-tetrazatetracyclo[8.8.0.02,6.011,17]octadeca-1(10),3,5,8,11(17)-pentaene] | 0.0478 | 0.0478 | 119 | 2.19 | 4.52 | 94.6 | 1.98 | – | – | – | – | –
2 | C[C@@H]1N=C(c2c(F)cccc2F)c2c(sc3c2CCCCC3)-n2ccc(=O)nc21 [Example 7, (8S)-10-(2,6-difluorophenyl)-8-methyl-19-thia-2,6,9-triazatetracyclo[9.8.0.02,7.012,18]nonadeca-1(11),3,6,9,12(18)-pentaen-5-one] | 0.0375 | 0.0375 | 169 | 2.69 | 7.69 | 205.1 | 2.31 | – | – | – | – | –
3 | Cc1nnc2n1-c1sc3c(c1C(c1c(F)cccc1F)=N[C@H]2C)CCCC(F)(F)C3 [Example 8, (7S)-9-(2,6-difluorophenyl)-15,15-difluoro-3,7-dimethyl-18-thia-2,4,5,8-tetrazatetracyclo[8.8.0.02,6.011,17]octadeca-1(10),3,5,8,11(17)-pentaene] | 0.0513 | 0.0513 | 203 | 3.03 | 2.76 | 53.8 | 1.73 | – | – | – | – | –
4 | Cc1nnc2n1-c1sc3c(c1C(c1c(F)cccc1F)=NC2)CCCCO3 [Example 18, 9-(2,6-difluorophenyl)-3-methyl-16-oxa-18-thia-2,4,5,8-tetrazatetracyclo[8.8.0.02,6.011,17]octadeca-1(10),3,5,8,11(17)-pentaene] | 0.0209 | 0.0209 | 113 | 2.13 | 0.428 | 20.5 | 1.31 | – | – | – | – | –
5 | Cc1nnc2n1-c1sc3c(c1C(c1c(F)cccc1F)=N[C@H]2C)CCCCO3 [Example 19, (7S)-9-(2,6-difluorophenyl)-3,7-dimethyl-16-oxa-18-thia-2,4,5,8-tetrazatetracyclo[8.8.0.02,6.011,17]octadeca-1(10),3,5,8,11(17)-pentaene] | 0.0168 | 0.0169 | 122 | 2.22 | 0.615 | 36.5 | 1.56 | – | – | – | – | –
6 | Cc1nc2n(n1)-c1sc3c(c1C(c1c(F)cccc1F)=N[C@H]2C)CCCCC3 [Example 20, (7S)-9-(2,6-difluorophenyl)-4,7-dimethyl-18-thia-2,3,5,8-tetrazatetracyclo[8.8.0.02,6.011,17]octadeca-1(10),3,5,8,11(17)-pentaene] | 0.0126 | 0.0126 | 76 | 1.76 | 1.28 | 101.9 | 2.01 | – | – | – | – | –
7 | Cc1nnc2n1-c1sc3c(c1C(c1c(F)cccc1F)=N[C@H]2C)COCCO3 [Example 21, (7S)-9-(2,6-difluorophenyl)-3,7-dimethyl-13,16-dioxa-18-thia-2,4,5,8-tetrazatetracyclo[8.8.0.02,6.011,17]octadeca-1(10),3,5,8,11(17)-pentaene] | 0.0202 | 0.0202 | 140 | 2.40 | 1.36 | 67.2 | 1.83 | 0.0202 | 67.2 | 1.8 | 1.36 | –
8 | C[C@@H]1N=C(c2c(F)cccc2F)c2c(sc3c2COCCO3)-n2nc(C(=O)N3CCC3)nc21 [Example 22, azetidin-1-yl-[(7S)-9-(2,6-difluorophenyl)-7-methyl-13,16-dioxa-18-thia-2,3,5,8-tetrazatetracyclo[8.8.0.02,6.011,17]octadeca-1(10),3,5,8,11(17)-pentaen-4-yl]methanone] | 0.01 | 0.01 | 88 | 1.88 | – | 304.3 | 2.48 | – | – | – | – | 3.04
9 | [2H]C1([2H])OCc2c(sc3c2C(c2c(F)cccc2F)=N[C@@H](C)c2nc(C(=O)N4CCC4)nn2-3)OC1([2H])[2H] [Example 23, azetidin-1-yl-[(7S)-14,14,15,15-tetradeuterio-9-(2,6-difluorophenyl)-7-methyl-13,16-dioxa-18-thia-2,3,5,8-tetrazatetracyclo[8.8.0.02,6.011,17]octadeca-1(10),3,5,8,11(17)-pentaen-4-yl]methanone] | 0.0063 | 0.0063 | 63 | 1.63 | – | 1329.5 | 3.12 | – | – | – | – | 8.42
10 | C[C@@H]1N=C(c2c(F)cccc2F)c2c(sc3c2COCCO3)-n2nc(C(=O)N3CC(F)C3)nc21 [Example 24, (3-fluoroazetidin-1-yl)-[(7S)-9-(2,6-difluorophenyl)-7-methyl-13,16-dioxa-18-thia-2,3,5,8-tetrazatetracyclo[8.8.0.02,6.011,17]octadeca-1(10),3,5,8,11(17)-pentaen-4-yl]methanone] | 0.00375 | 0.0038 | 59 | 1.59 | – | 691.7 | 2.84 | – | – | – | – | 2.6
11 | C[C@@H]1N=C(c2c(F)cccc2F)c2c(sc3c2COCCO3)-n2nc(C(=O)NCCF)nc21 [Example 25, (7S)-9-(2,6-difluorophenyl)-N-(2-fluoroethyl)-7-methyl-13,16-dioxa-18-thia-2,3,5,8-tetrazatetracyclo[8.8.0.02,6.011,17]octadeca-1(10),3,5,8,11(17)-pentaene-4-carboxamide] | 0.029 | 0.029 | 99 | 1.99 | – | 75.4 | 1.88 | – | – | – | – | 2.19
12 | Cc1cn2c(nc1=O)[C@H](C)N=C(c1c(F)cccc1F)c1c-2sc2c1CCCCC2 [Example 26, (8S)-10-(2,6-difluorophenyl)-4,8-dimethyl-19-thia-2,6,9-triazatetracyclo[9.8.0.02,7.012,18]nonadeca-1(11),3,6,9,12(18)-pentaen-5-one] | 0.032 | 0.032 | 109 | 2.09 | 6.04 | 188.9 | 2.28 | – | – | – | – | –
13 | Cc1nnc2n1-c1sc3c(c1C(c1c(F)cccc1F)=N[C@H]2C)CC[C@@H](O)CC3 [Example 27, (7S,14R)-9-(2,6-difluorophenyl)-3,7-dimethyl-18-thia-2,4,5,8-tetrazatetracyclo[8.8.0.02,6.011,17]octadeca-1(10),3,5,8,11(17)-pentaen-14-ol] | 0.0428 | 0.0428 | 77 | 1.77 | 11.4 | 266.4 | 2.43 | – | – | – | – | –
